Test results as given in patent US20160052937A1, “Tetrahydroimidazo[1,5-d][1,4]oxazepine compound” (Eisai R&D Management Co., Ltd., priority 2014, published 2016).

Assays:
[1] = tested on: Long-Evans rats, cognitive impairment induced by scopolamine; assay: Novel object recognition (NOR) test in rats; format: in vivo, rat; conditions: oral; scopolamine hydrobromide 0.3 mg/kg i.p.; statistically significant difference in discrimination index vs scopolamine alone group
Method: Six-week old male Long-Evans rats were used for this test. For 2 days before starting the test, the rats were acclimated to experimental operations such as administration and a test device (that is, a black or gray plastic cage with a width of 40 cm, a depth of 30 cm and a height of 45 cm). Each test compound was dissolved in a 0.1 N hydrochloric acid to be orally administered. Thirty minutes after the administration, scopolamine hydrobromide was intraperitoneally administered at a 0.3 mg/kg dose, so as to induce cognitive impairment. After another 30 minutes, each rat was acclimated in the test device for 3 minutes, and thereafter, two blocks in the same shape were put in the test device as acquisition trial, and exploring time for each block was measured for 5 minutes. Two hours after the acquisition trial, the rat was acclimated in the test device for 3 minutes, and thereafter, the same block as those used in the acquisition trial and a new block in a different shape were put in the cage for retention trial. The exploring time for each block was measured for 3 minutes, and a ratio of the exploring time for the newly used block to the sum of the exploring times for the respective blocks was calculated as a discrimination index. The thus obtained discrimination indexes were compared among a group of rats to which a medium alone was administered (medium group), a group of rats to which scopolamine alone was administered (scopolamine alone group) and a group of rats to which both the test compound and scopolamine were administered, so as to evaluate the action of the test compound on the novel object recognition function (cognitive function) of the rats.
Each discrimination index was shown as an average and a standard error. The statistical significance between the medium group and the scopolamine alone group was analyzed by the independent t-test. The statistical significance between the scopolamine alone group and each sample group was analyzed by one-way analysis of variance and then by Dunnett's multiple comparison test. The significance level was set to 5% on both sides. […] The analysis was carried out by using Prism 5 for Windows for Japanese, ver. 5.03. A minimum effective dose at which a statistically significant difference was found between a group suffering from the cognitive impairment induced by scopolamine and a group treated with each compound is shown in Table 4.

[2] = biological target: T1, human metabotropic glutamate receptor 2 (mGluR2) (Homo sapiens, UniProt Q14416); assay: [35S]GTPγS binding assay (Affinity to mGluR2); format: biochemical; conditions: cell membrane fraction of HEK293 cells stably expressing human mGluR2; glutamic acid 10 μM
T1 construct: expressed in transfected cells; co-expressing human SLC1A3), cell membrane fraction
Method: (Preparation of Cell Membrane Fraction of HEK293 Cells Stably Expressing Human Metabotropic Glutamate Receptor 2 (mGluR2))
HEK293 cells stably expressing human mGluR2 and human glutamate transporter SLC1A3 were cultured in a Dulbecco's modified Eagle's medium with 10% fetal bovine serum (50 units/mL of penicillin, 50 μg/mL of streptomycin, 60 μg/mL of geneticin, 400 μg/mL of hygromycin B and 2 mM of glutamine) at 37° C. under 5% CO2. Confluent cell cultures were washed twice with PBS(−), and then scraped off with a cell scraper, and subjected to centrifugal separation at 4° C. and 1500 rpm for 5 minutes for collecting cells. The centrifuged sediment (cell pellet) was homogenized in a 20 mM HEPES buffer containing 10 mM EDTA (pH 7.4) by using sonicator and centrifuged at 4° C. and 1500×g for 30 minutes. The supernatant (soluble fraction) was subjected to the centrifugal separation at 4° C. and 40,000×g for 30 minutes, and thus, insoluble fraction was obtained. After additional centrifugally washing the obtained fraction with 20 mM HEPES buffer containing 10 mM EDTA (pH 7.4), the pellet was centrifugally suspended with a 20 mM HEPES buffer containing 0.1 mM EDTA, and the cell membrane fraction was obtained by the centrifugal separation at 4° C. and 40,000×g for 30 minutes. The thus obtained cell membrane fraction was suspended in a 20 mM HEPES buffer containing 0.1 mM EDTA in a protein concentration of 3 mg/mL, which was stored at −80° C.
([^35S]GTPγS binding assay)
The frozen cell membrane fraction prepared as described above was thawed before use, and the resultant was diluted with a buffer for a binding assay (final concentrations: 20 mM HEPES, 100 mM NaCl, 1 mM MgCl2, 3 μM GDP, 300 μg/mL saponin, 0.1% BSA). The compound of each example was added to a cell membrane fraction containing 1.8 to 3 μg/assay of membrane protein on a plate, followed by incubation at room temperature for 30 minutes. Thereafter, with glutamic acid (in a final concentration of 10 μM) added thereto, incubation was performed at room temperature for 15 minutes, and thereafter, [^35S]GTPγS (in a final concentration of 0.8 kBq) and 588 μg WGA-SPA beads were added thereto, followed by incubation at room temperature for 1 hour. After the incubation, the plate was subjected to the centrifugal separation at 2,500 rpm and room temperature, and then, membrane cell binding radioactivity was measured with a top count.
A [^35S]GTPγS binding amount obtained by performing the above-described reaction in the absence of glutamic acid was defined as nonspecific binding, and a difference from a [^35S]GTPγS binding amount obtained in the presence of glutamic acid was defined as specific binding. On the basis of ratios of inhibiting the specific binding at various concentrations of the compounds of the respective examples, inhibition curves were obtained. Concentrations of the compounds of the respective examples at which the specific [^35S]GTPγS binding amount was suppressed by 50% (IC50 values) were calculated on the basis of the inhibition curves and shown in Table 3.

T1 sequence (Q14416 19-872): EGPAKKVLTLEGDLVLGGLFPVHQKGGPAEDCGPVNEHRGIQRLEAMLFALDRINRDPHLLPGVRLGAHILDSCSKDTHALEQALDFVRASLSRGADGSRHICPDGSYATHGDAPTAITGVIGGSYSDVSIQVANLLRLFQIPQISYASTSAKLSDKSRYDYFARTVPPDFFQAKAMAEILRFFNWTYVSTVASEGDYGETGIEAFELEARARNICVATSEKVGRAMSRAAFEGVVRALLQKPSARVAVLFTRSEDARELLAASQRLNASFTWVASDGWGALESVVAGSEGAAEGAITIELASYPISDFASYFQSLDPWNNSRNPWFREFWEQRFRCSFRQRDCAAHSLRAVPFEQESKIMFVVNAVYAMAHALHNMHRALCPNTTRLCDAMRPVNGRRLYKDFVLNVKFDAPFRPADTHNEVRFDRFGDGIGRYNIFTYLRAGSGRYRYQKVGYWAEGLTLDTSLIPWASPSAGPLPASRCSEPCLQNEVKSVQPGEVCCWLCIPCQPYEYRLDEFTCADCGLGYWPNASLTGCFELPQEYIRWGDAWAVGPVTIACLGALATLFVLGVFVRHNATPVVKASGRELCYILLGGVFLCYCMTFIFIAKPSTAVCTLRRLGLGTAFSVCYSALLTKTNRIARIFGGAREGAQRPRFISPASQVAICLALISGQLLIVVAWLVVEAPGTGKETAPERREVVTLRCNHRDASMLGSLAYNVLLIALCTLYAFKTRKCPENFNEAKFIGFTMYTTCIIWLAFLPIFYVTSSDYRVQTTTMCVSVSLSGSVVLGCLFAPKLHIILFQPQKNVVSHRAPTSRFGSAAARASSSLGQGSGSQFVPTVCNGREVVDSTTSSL

IC50 [2] [nM]	SMILES	Minimum effective dose [1]
3.7	CC(C)NS(=O)(=O)c1ccc(-c2nc(-c3ccc(F)cc3)n3c2CCO[C@H](C)C3)cc1 [Example 1, (R)-4-(3-(4-fluorophenyl)-6-methyl-5,6,8,9-tetrahydroimidazo[1,5-d][1,4]oxazepin-1-yl)-N-isopropylbenzenesulfonamide]	1 mg/kg, p.o.
5	COc1ccc(-c2nc(-c3ccc(S(=O)(=O)NC4CCC4)cc3)c3n2C[C@@H](C)OCC3)cc1 [Example 3, (R)—N-cyclobutyl-4-(3-(4-methoxyphenyl)-6-methyl-5,6,8,9-tetrahydroimidazo[1,5-d][1,4]oxazepin-1-yl)benzenesulfonamide]	1 mg/kg, p.o.
3.1	COc1ccc(-c2nc(-c3ccc(S(=O)(=O)NC(C)C)cc3)c3n2C[C@@H](C)OCC3)cc1 [Example 8, (R)—N-isopropyl-4-(3-(4-methoxyphenyl)-6-methyl-5,6,8,9-tetrahydroimidazo[1,5-d][1,4]oxazepin-1-yl)benzenesulfonamide]	3 mg/kg, p.o.
0.9	CC1(NS(=O)(=O)c2ccc(-c3nc(-c4ccc(F)cc4)n4c3CCO[C@H](CF)C4)cc2)CCC1 [Example 39]	–
4.1	CCNS(=O)(=O)c1ccc(-c2nc(-c3ccc(F)cc3)n3c2CCO[C@H](C)C3)cc1 [Example 15]	–
7.1	CC(C)NS(=O)(=O)c1ccc(-c2nc(-c3ccc(OC4COC4)cc3)n3c2CCOC(C)C3)cc1 (stereo not drawn) [Example 11]	–
2.2	O=S(=O)(NC1CCC1)c1ccc(-c2nc(-c3ccc(F)cc3)n3c2CCO[C@H](CF)C3)cc1 [Example 38]	–
3.1	COc1ccc(-c2nc(-c3ccc(S(=O)(=O)NC(C)(C)C)cc3)c3n2C[C@@H](CF)OCC3)cc1 [Example 2, (S)—N-(tert-butyl)-4-(6-(fluoromethyl)-3-(4-methoxyphenyl)-5,6,8,9-tetrahydroimidazo[1,5-d][1,4]oxazepin-1-yl)benzenesulfonamide]	3 mg/kg, p.o.
1.8	CCNS(=O)(=O)c1ccc(-c2nc(-c3ccc(OCC)cc3)n3c2CCO[C@H](C)C3)cc1 [Example 35]	–
11.2	CCNS(=O)(=O)c1ccc(-c2nc(-c3ccc(OCF)cc3)n3c2CCO[C@H](C)C3)cc1 [Example 21]	–
10.9	C[C@@H]1Cn2c(-c3ccc(OC(F)F)c(F)c3)nc(-c3ccc(S(=O)(=O)NC(C)(C)C)cc3)c2CCO1 [Example 66]	–
6	CCNS(=O)(=O)c1ccc(-c2nc(-c3ccc(OC)cc3)n3c2CCO[C@H](CF)C3)cc1 [Example 46]	–
4.9	CC(C)(C)NS(=O)(=O)c1ccc(-c2nc(-c3ccc(OC(F)F)cc3)n3c2CCO[C@H](CF)C3)cc1 [Example 54]	–
3.7	CC1(NS(=O)(=O)c2ccc(-c3nc(-c4ccc(OC(F)F)cc4)n4c3CCO[C@H](CF)C4)cc2)CCC1 [Example 61]	–
